Measurements reported in patent publication US20140113876A1, “BIOMARKERS FOR ASSESSING TREATMENT OF SIALIC ACID DEFICIENCY DISEASES AND CONDITIONS” (ULTRAGENYX PHARMACEUTICAL INC., priority 2012, published 2014).

Test system: HIBM patients
Assay: Phase 2 clinical trial: change in serum biomarker levels between week 0 and week 24 per dosage group (Human Discovery MAP250+ v2.0 immunoassay)
Type: in vivo
Method: Forty-seven (47) HIBM patient serum samples collected at week 24 from phase 2 study were tested using the Human Discovery MAP250+ v2.0 quantitative immunoassay system developed by Myriad RBM. The results were compared to the serum samples of the same 47 HIBM patients collected at week 0 (baseline) which were conducted earlier with the same immunoassay system.
Patients were unblinded and the results were organized into the 3 assigned dosage groups, placebo (n=14), 3 g/day (n=17) and 6 g/day (n=14). The major focus of the analysis was 1) to assess changes (delta, A) in levels of analytes between baseline and week 24 in each dosage group, 2) whether the changes correlate to dosage levels.
Analytes were excluded from analysis if […] of the HIBM patient samples were below least detectable dose (LDD). Within each dosage group, individual values with >5× difference to the mean of the dosage group were considered as outliers and thus removed from analysis.

[1] = placebo, 3 g/day, 6 g/day, week 0 to week 24, FIG. 4

## CC(=O)N[C@H]1[C@H]([C@H](O)[C@H](O)CO)OC(O)(C(=O)O)C[C@@H]1O (some centres unmarked) [Sialic Acid, 5-N-acetylneuraminic acid]
6 g/day dosage group, week 0 to week 24, FIG. 2
  serum level of LAP TGF-b1, change towards normal level compared to placebo: declined at a faster rate
6 g/day dosage group, week 0 to week 24, FIG. 3
  serum level of NCAM, change towards normal level compared to placebo: increased at a faster rate
6 g/day group, week 24
  change in the levels of the eleven analytes of Table 14 compared to the placebo group: more favorable change
[1]
  slope of delta from placebo to higher dosage group, analytes with baseline levels higher than normal controls (PAI-1, LGL, myoglobin, ENA-78, TGfb1, M-CSF1, MMP-9, CgA): downward trend
  slope of delta from placebo to higher dosage group, analytes with baseline levels lower than normal controls (NCAM, ErbB3): upward trend
